The values that follow are results of earlier work, collected in patent publication US20230098686A1, “NERVE SPECIFIC FLUOROPHORE FORMULATIONS FOR DIRECT AND SYSTEMIC ADMINISTRATION” (OREGON HEALTH & SCIENCE UNIVERSITY, priority 2020, published 2023).

The data set has as its system nerve tissue. To be noted: previous studies.

For `CC/N=c1/cc2oc3cc(NCC)c(C)cc3nc-2cc1C` [Oxazine 4], the nerve specificity entry was “high nerve-specificity”.
